Where two headings read alike, the source gives them in different places. Each block holds one compound with its values, some of them ahead of it. Where a SMILES comes first, the peptide text is derived from it. [ ]: non-standard residue; d: D form. Tic = O=C(O)[C@@H]1Cc2ccccc2CN1; Abu = CC[C@H](N)C(=O)O
Experiments:
[1] = test system: human MTC cell line TT; assay: TT cell viability by Trypan Blue staining; assay type: cell-based
Experimental: (§1) After incubation, the cells were washed three times with ice-cold PBS and twice with 10% ice-cold trichloroacetic acid (TCA). TCA-precipitated material was solubilized in 500 μL 0.2 mol/L sodium hydroxide and 0.1% SDS. Cell-associated radioactivity was then counted in a scintillation spectrometer. Results (counts per min per well) were obtained by determining the mean value of at least six experiments in quadruplicate. The viability of TT cells in control and treated cultures was evaluated by Trypan blue staining both after 24 and 48 hours, and the number of viable cells was always 85-95%.

[2] = biological target: T1, human SSTR2 (Homo sapiens, UniProt P30874); assay: SSTR2 mediated intracellular calcium mobilization in CHO-K1 cells; assay type: cell-based; conditions: 10^-7-10^-6 M, FIG. 1
T1 construct: expressed in transfected cells
T1 sequence (P30874 whole entry): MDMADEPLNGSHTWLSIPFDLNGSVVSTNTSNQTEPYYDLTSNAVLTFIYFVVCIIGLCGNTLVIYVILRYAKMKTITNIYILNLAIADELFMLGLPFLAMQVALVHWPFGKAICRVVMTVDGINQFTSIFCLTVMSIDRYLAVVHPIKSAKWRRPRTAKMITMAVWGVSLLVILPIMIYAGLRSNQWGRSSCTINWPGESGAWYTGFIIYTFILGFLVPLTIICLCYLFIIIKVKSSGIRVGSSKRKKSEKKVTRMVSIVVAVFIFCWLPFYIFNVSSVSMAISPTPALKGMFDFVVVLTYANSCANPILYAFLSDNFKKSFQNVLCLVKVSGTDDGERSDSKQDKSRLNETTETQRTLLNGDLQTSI

[3] = biological target: human SSTR1 (Homo sapiens, UniProt P30872); assay: Radioligand membrane receptor binding assay, SSTR1; conditions: CHO-K1 membranes, [125I-Tyr11]SS-14; read-out: Human somatostatin receptor subtype specificity, Ki, receptor subtype 1
Sequence of human SSTR1 (P30872 whole entry): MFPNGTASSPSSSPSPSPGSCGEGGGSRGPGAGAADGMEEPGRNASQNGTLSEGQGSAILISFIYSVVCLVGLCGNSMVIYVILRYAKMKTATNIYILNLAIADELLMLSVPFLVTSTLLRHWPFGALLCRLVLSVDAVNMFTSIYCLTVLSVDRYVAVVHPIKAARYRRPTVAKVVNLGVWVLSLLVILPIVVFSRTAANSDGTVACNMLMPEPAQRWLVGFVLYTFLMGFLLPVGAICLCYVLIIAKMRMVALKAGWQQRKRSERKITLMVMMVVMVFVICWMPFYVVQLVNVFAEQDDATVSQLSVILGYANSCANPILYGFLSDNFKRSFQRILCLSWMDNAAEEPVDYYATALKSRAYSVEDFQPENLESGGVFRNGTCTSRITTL

[4] = test system: human MTC cell line TT; assay: [3H]thymidine incorporation (DNA synthesis) in TT cells; assay type: cell-based; conditions: for Change of [3H]thy incorporation: p<0.05
Experimental: Cells were incubated in 24-well plates for 48 hours in a culture medium supplemented with SS analogues at various concentrations (10^−9, 10^−8, 10^−7, and 10^−6 M). Control wells were treated with vehicle solution and [^3H]thy incorporation was measured as radioactivity in TCA-precipitated material. Data from six individual experiments evaluated independently in quadruplicate are expressed as the mean±SEM percent [^3H]thy incorporation inhibition versus untreated control cells *P<0.05 and **P<0.01 vs. control.
Control wells were treated with vehicle solution. [^3H]thy incorporation was measured as radioactivity in TCA-precipitated material. Data from six individual experiments were evaluated independently with four replicates expressed as the mean±SEM percent [^3H]thy incorporation inhibition versus untreated control cells *P<0.05 and **P<0.01 vs. control.
The effects of SSTR selective agonists and antagonists on TT cell DNA synthesis were assessed by determining the rate of [^3H]thymidine ([^3H]thy) incorporation, as previously described (Davis L, et al., 1994 In: Basic methods in Molecular Biology, 2nd edition, Appleton & Lange, Norwalk, Conn., USA: 611-646, degli Uberti E C, et al., 1991 J Clin Endocrinol Metab 72: 1364-1371). TT cells were plated in 24-multiwell plates (10^5 cells/well) and incubated for 48 hours in a medium supplemented with 10% FBS in the presence of [^3H]thy (1.5 μCi/mL; 87 Ci/mmol) with or without each SS analogue at concentrations ranging from 10^−6 to 10^−9 M. Treatments were renewed by adding fresh analogues to the wells after the first 24 h of incubation, without removing the medium.
as §1

[5] = test system: human MTC cell line TT; assay: TT cell proliferation ([…] 96 MTS assay, viable cell number); assay type: cell-based
Experimental: Cells were incubated in 96-well plates for 48 hours in a culture medium supplemented with SS analogues at various concentrations (10^−9, 10^−8, 10^−7, and 10^−6 M). Control wells were treated with vehicle solution. TT cell proliferation was measured as absorbance at […] of each well. Data from six individual experiments were evaluated independently with eight replicates expressed as the mean±SEM percent cell proliferation inhibition versus untreated control cells *P<0.05 and **P<0.01 vs. control.
(§2) Control wells were treated with vehicle solution. TT cell proliferation was measured as absorbance at […] of each well. Data from six individual experiments were evaluated independently with eight replicates expressed as the mean±SEM percent cell proliferation inhibition versus untreated control cells *P<0.05 and **P<0.01 vs. control.
as §2, with “solution and” for “solution.”
The effects of SSTR selective agonists and antagonists on TT cell proliferation were assessed by the […] […] The absorbance at 490 nm was then recorded using an ELISA plate reader (EASIA Reader, Medgenix, Camarillo, Calif.). […]

SMILES: CC(C)[C@@H]1NC(=O)[C@H](CCCCN)NC(=O)[C@@H](Cc2c[nH]c3ccccc23)NC(=O)[C@H](Cc2ccc(O)cc2)NC(=O)[C@@H](NC(=O)[C@H](N)Cc2ccc3ccccc3c2)CSSC[C@@H](C(=O)N[C@H](C(N)=O)[C@@H](C)O)NC1=O [Compound 1, D-Nal-cyclo[Cys-Tyr-D-Trp-Lys-Val-Cys]-Thr-NH2]
Cytotoxic action by Trypan Blue staining ([1]; 10^-7 M): not associated with any cytotoxic action

SMILES: CC[C@@H]1NC(=O)[C@H](CCCCN)NC(=O)[C@@H](Cc2c[nH]c3ccccc23)NC(=O)[C@H](Cc2ccc(O)cc2)NC(=O)[C@@H]2Cc3ccccc3CN2C(=O)[C@H](Cc2ccccc2)NC1=O [Compound 2, cyclo[Tic-Tyr-D-Trp-Lys-Abu-Phe]] (cyclo([Tic]Y[dW]K[Abu]F))
Intracellular Ca2+ mobilization (ratio stimulated/basal) in SSTR2 expressing cells [2]: stimulated significant intracellular Ca^2+ mobilization
Cytotoxic action by Trypan Blue staining [1]: not associated with any cytotoxic action

Ki [3]: 5.21 µM
SMILES: CC[C@@H]1NC(=O)[C@H](CCCCN)NC(=O)[C@@H](Cc2c[nH]c3ccccc23)NC(=O)[C@H](Cc2ccc(O)cc2)NC(=O)[C@@H](NC(=O)[C@@H](Cc2ccccc2)NC(=O)CN2CCN(CCO)CC2)CSSC[C@@H](C(=O)N[C@H](C(N)=O)[C@@H](C)O)NC1=O [Compound 3, 4-(2-Hydroxyethyl)-1-piperazinylacetyl-D-Phe-cyclo(Cys-Tyr-D-Trp-Lys-Abu-Cys)-Thr-NH2]
Significant reduction of [3H]thy incorporation ([4]; 10^-8 M and 10^-7 M): not
Significant reduction of [3H]thy incorporation ([4]; 10^-9 M): significantly (p<0.05) reduced
Change of [3H]thy incorporation ([4]; 10^-9 M, 48 h): −17%

SMILES: CC[C@@H]1NC(=O)[C@H](CCCCN)NC(=O)[C@@H](Cc2c[nH]c3ccccc23)NC(=O)[C@H](Cc2ccc(O)cc2)NC(=O)[C@@H](NC(=O)[C@@H](Cc2ccccc2)NS(=O)(=O)CCN2CCN(CCO)CC2)CSSC[C@@H](C(=O)N[C@H](C(N)=O)[C@@H](C)O)NC1=O [Compound 4, 4-(2-Hydroxyethyl)-1-piperazine-2-ethanesulfonyl-D-Phe-cyclo(Cys-Tyr-D-Trp-Lys-Abu-Cys)-Thr-NH2]
Significant reduction of [3H]thy incorporation ([4]; 10^-8 M and 10^-7 M): not
Significant reduction of [3H]thy incorporation ([4]; 10^-9 M): significantly (p<0.05) reduced
Change of [3H]thy incorporation ([4]; 10^-9 M, 48 h): −13%

SMILES: C[C@@H](O)[C@H](NC(=O)[C@H](Cc1ccccc1)NC(=O)[C@@H](NC(=O)[C@H](CCCCN)NC(=O)[C@@H](Cc1c[nH]c2ccccc12)NC(=O)[C@H](Cc1c[nH]c2ccccc12)NC(=O)[C@H](Cc1ccccc1)NC(=O)[C@H](N)Cc1ccccc1)[C@@H](C)O)C(N)=O [Compound 5, D-Phe-Phe-Trp-D-Trp-Lys-Thr-Phe-Thr-NH2]
Effect on suppression of TT cell [3H]thy incorporation produced by Compound 2 ([4]; 10^-9 M to 10^-6 M with Compound 2 10^-7 M, FIG. 8 upper panel): dose-dependently prevented
Increase of [3H]thy incorporation ([4]; 10^-9 to 10^-6 M, 48 h): 80-175%
Increase of TT cell proliferation ([5]; 10^-8 M, not statistically different from control): up to 11%
Effect on suppression of TT cell proliferation produced by Compound 2 ([5]; 10^-9 M to 10^-6 M with Compound 2 10^-7 M, FIG. 8 lower panel): dose-dependently prevented
